IC50 data for 15 molecules are collected here from US10155750B2, “Amidoethyl azole orexin receptor antagonists” (Merck Sharp & Dohme Corp., priority 2014, dated 2018).

Assay [1] concerns the target hOX1R (orexin-1 receptor) (Homo sapiens, UniProt O43613). Briefly: FLIPR Ca2+ flux assay, hOX1R. As to conditions: CHO cells expressing the receptor; agonist 70 pM Ala-6,12 human orexin-A. In kind it is cell-based. For orientation: Calcium flux is commonly read through the fluorescence of an indicator in the cells.
A further assay has as its target human orexin-2 receptor (Homo sapiens (Human), UniProt O43614). Nature of the assay: FLIPR Ca2+ flux assay, hOX2R. In kind it is cell-based. Particulars: CHO cells expressing the receptor; agonist 70 pM Ala-6,12 human orexin-A. The protocol:
The utility of the compounds in accordance with the present invention as orexin receptor OX1R and/or OX2R antagonists may be readily determined without undue experimentation by methodology well known in the art, including the “FLIPR Ca^2+ Flux Assay” (Okumura et al., Biochem. Biophys. Res. Comm. 280:976-981, 2001). In a typical experiment the OX1 and OX2 receptor antagonistic activity of the compounds of the present invention was determined in accordance with the following experimental method. For intracellular calcium measurements, Chinese hamster ovary (CHO) cells expressing the rat orexin-1 receptor or the human orexin-2 receptor, are grown in Iscove's modified DMEM containing 2 mM L-glutamine, […], 1% hypoxanthine-thymidine supplement, 100 U/ml penicillin, 100 μg/ml streptomycin and 10% heat-inactivated fetal calf serum (FCS). The cells are seeded at 20,000 cells/well into Becton-Dickinson black 384-well clear bottom sterile plates coated with poly-D-lysine. All reagents were from GIBCO-Invitrogen Corp. The seeded plates are incubated overnight at 37° C. and 5% CO2. Ala-6,12 human orexin-A as the agonist is prepared as a 1 mM stock solution in 1% bovine serum albumin (BSA) and diluted in assay buffer (HBSS containing 20 mM HEPES, 0.1% BSA and 2.5 mM probenecid, pH7.4) for use in the assay at a final concentration of 70 pM. Test compounds are prepared as 10 mM stock solution in DMSO, then diluted in 384-well plates, first in DMSO, then assay buffer. On the day of the assay, cells are washed 3 times with 100 μl assay buffer and then incubated for 60 min (37° C., 5% CO2) in 60 μl assay buffer containing 1 μM Fluo-4AM ester, 0.02% pluronic acid, and 1% BSA. The dye loading solution is then aspirated and cells are washed 3 times with 100 μl assay buffer. 30 μl of that same buffer is left in each well. Within the Fluorescent Imaging Plate Reader (FLIPR, Molecular Devices), test compounds are added to the plate in a volume of 25 μl, incubated for 5 min and finally 25 μl of agonist is added. Fluorescence is measured for each well at 1 second intervals for 5 minutes and the height of each fluorescence peak is compared to the height of the fluorescence peak induced by 70 pM Ala-6,12 orexin-A with buffer in place of antagonist. For each antagonist, IC50 value (the concentration of compound needed to inhibit 50% of the agonist response) is determined. Alternatively, compound potency can be assessed by a radioligand binding assay (described in Bergman et. al. Bioorg. Med. Chem. Lett. 2008, 18, 1425-1430) in which the inhibition constant (Ki) is determined in membranes prepared from CHO cells expressing either the OX1 or OX2 receptor. The intrinsic orexin receptor antagonist activity of a compound which may be used in the present invention may be determined by these assays.

pIC50: −log10 of the molar value.

Chain of human orexin-2 receptor (O43614 whole entry): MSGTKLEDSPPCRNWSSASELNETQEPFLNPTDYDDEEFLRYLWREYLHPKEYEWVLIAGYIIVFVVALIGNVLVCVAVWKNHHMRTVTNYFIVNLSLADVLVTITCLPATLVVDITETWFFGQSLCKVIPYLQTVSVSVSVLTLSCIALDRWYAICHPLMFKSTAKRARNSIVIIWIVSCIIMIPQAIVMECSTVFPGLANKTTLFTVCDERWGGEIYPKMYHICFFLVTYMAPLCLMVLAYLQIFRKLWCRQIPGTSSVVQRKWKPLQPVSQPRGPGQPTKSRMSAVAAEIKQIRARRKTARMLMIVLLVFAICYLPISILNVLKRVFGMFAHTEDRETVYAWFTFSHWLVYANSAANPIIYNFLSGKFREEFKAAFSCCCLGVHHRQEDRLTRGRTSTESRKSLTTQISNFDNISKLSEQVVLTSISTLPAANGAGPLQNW

Broadly, the pIC50 is the IC50 on a negative log10 scale, so that one unit is a factor of ten. Low values mean a high IC50, high ones a low IC50. As to `CCN(CCn1nc(C)c(C(C)(C)O)n1)C(=O)c1ccccc1OCC(F)F` [Example 35, 2-(2,2-difluoroethoxy)-N-ethyl-N-(2-(4-(2-hydroxypropan-2-yl)-5-methyl-2H-1,2,3-triazol-2-yl)ethyl)benzamide], the negative-log IC50 (pIC50) in assay [1] was less than 5.00; on human orexin-2 receptor, 7.46.
In the same order, the values of `CCN(CCn1nc(C)c(C(C)(C)O)n1)C(=O)c1cccnc1CC(F)(F)F` [Example 36, N-ethyl-N-(2-(4-(2-hydroxypropan-2-yl)-5-methyl-2H-1,2,3-triazol-2-yl)ethyl)-2-(2,2,2-trifluoroethyl) nicotinamide] are less than 5.00 and 6.57.
On to `CCN(CCn1nc(C)c(C(C)(C)O)n1)C(=O)c1ccccc1CC(F)F` [Example 37, 2-(2,2-difluoroethyl)-N-ethyl-N-(2-(4-(2-hydroxypropan-2-yl)-5-methyl-2H-1,2,3-triazol-2-yl)ethyl)benzamide], for which the pIC50 in assay [1] was less than 5.00; on human orexin-2 receptor it was 8.00.
For the molecule `CCN(CCn1nc(C)c(C(C)(C)O)n1)C(=O)c1ccccc1C1CC1(F)F` (stereo not drawn) [Example 38, 2-(2,2-difluorocyclopropyl)-N-ethyl-N-(2-(4-(2-hydroxypropan-2-yl)-5-methyl-2H-1,2,3-triazol-2-yl)ethyl)benzamide], the pIC50 in assay [1] is 5.83; on human orexin-2 receptor, 8.00.
The matching figures for `CCN(CCn1nc(C)c(C(C)(C)O)n1)C(=O)c1ccc(OC)nc1C1CC1` [Example 39, 2-cyclopropyl-N-ethyl-N-(2-(4-(2-hydroxypropan-2-yl)-5-methyl-2H-1,2,3-triazol-2-yl)ethyl)-6-methoxynicotinamide]: 5.55 and 7.85.
The matching figures for `CCN(CCn1nc(C)c(C(C)(C)O)n1)C(=O)c1ccccc1C1CCC1` [Example 40, 2-cyclobutyl-N-ethyl-N-(2-(4-(2-hydroxypropan-2-yl)-5-methyl-2H-1,2,3-triazol-2-yl)ethyl)benzamide]: 5.93 and 7.89.
On to `CCN(CCn1nc(C)c(C(C)(C)O)n1)C(=O)c1ccccc1N1CCCC1` [Example 41, N-ethyl-N-(2-(4-(2-hydroxypropan-2-yl)-5-methyl-2H-1,2,3-triazol-2-yl)ethyl)-2-(pyrrolidin-1-yl)benzamide], for which the pIC50 in assay [1] is 5.68; on human orexin-2 receptor, 7.82.
In the same order, the values of `CCN(CCn1nc(C)c(C(C)(C)O)n1)C(=O)c1ccccc1-n1ncnn1` [Example 42, N-ethyl-N-(2-(4-(2-hydroxypropan-2-yl)-5-methyl-2H-1,2,3-triazol-2-yl)ethyl)-2-(2H-tetrazol-2-yl)benzamide] are less than 5.00 and 7.54.
In the case of `CCN(CCn1nc(C)c(C(C)(C)O)n1)C(=O)c1ncccc1-n1nccn1` [Example 43, N-ethyl-N-(2-(4-(2-hydroxypropan-2-yl)-5-methyl-2H-1,2,3-triazol-2-yl)ethyl)-3-(2H-1,2,3-triazol-2-yl)picolinamide], the pIC50 in assay [1] was less than 5.00; at human orexin-2 receptor, 6.74.
The matching figures for `CCN(CCn1nc(C)c(C(C)(C)O)n1)C(=O)c1ncccc1-c1ccccc1` [Example 44, N-ethyl-N-(2-(4-(2-hydroxypropan-2-yl)-5-methyl-2H-1,2,3-triazol-2-yl)ethyl)-3-phenylpicolinamide]: less than 5.00 and 6.97.
The matching figures for `CCN(CCn1nc(C)c(C(C)(C)O)n1)C(=O)c1nccnc1-c1ccccn1` [Example 45, N-ethyl-N-(2-(4-(2-hydroxypropan-2-yl)-5-methyl-2H-1,2,3-triazol-2-yl)ethyl)-3-(pyridin-2-yl)pyrazine-2-carboxamide]: less than 5.00 and 7.06.
The matching figures for `CCN(CCn1nc(C)c(C(C)(C)O)n1)C(=O)c1nccnc1-n1cccn1` [Example 47, N-ethyl-N-(2-(4-(2-hydroxypropan-2-yl)-5-methyl-2H-1,2,3-triazol-2-yl)ethyl)-3-(1H-pyrazol-1-yl)pyrazine-2-carboxamide]: less than 5.00 and 6.62.
Turning to `CCN(CCn1nc(C)c(C(C)(C)O)n1)C(=O)c1cccnc1-n1cccn1` [Example 48, N-ethyl-N-(2-(4-(2-hydroxypropan-2-yl)-5-methyl-2H-1,2,3-triazol-2-yl)ethyl)-2-(1H-pyrazol-1-yl)nicotinamide], the pIC50 was 5.12 in assay [1] and 7.89 at human orexin-2 receptor.
Turning to `CCN(CCn1cc(C(C)(C)O)cn1)C(=O)c1ccccc1-n1nccn1` [Example 49, N-Ethyl-N-{2-[4-(1-hydroxy-1-methylethyl)-1H-pyrazol-1-yl]ethyl}-2-(2H-1,2,3-triazol-2-yl)benzamide], the pIC50 in assay [1] was less than 5.00; at human orexin-2 receptor, 7.46.
The matching figures for `CCN(CCn1ccc(C(C)(C)O)n1)C(=O)c1ccccc1-n1nccn1` [Example 50, N-Ethyl-N-{2-[3-(1-hydroxy-1-methylethyl)-1H-pyrazol-1-yl]ethyl}-2-(2H-1,2,3-triazol-2-yl)benzamide]: less than 5.00 and 7.64.
